Laboratory results taken from the supplement of paper PMC10307832.

Columns and labels:
Assay in all cases: relative viability (nuclei count vs DMSO), 5 days (fraction); higher = more cells survive
[1] = compound: CC(C)N(CCCNC(=O)Nc1ccc(C(C)(C)C)cc1)C[C@H]1O[C@@H](n2ccc3c(N)ncnc32)[C@H](O)[C@@H]1O + Nc1nc2[nH]cc(CCc3ccc(C(=O)N[C@@H](CCC(=O)O)C(=O)O)cc3)c2c(=O)[nH]1 [Pemetrexed] (partner 0.2 µM)
In short: (§1)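 Lung cancer cell lines were seeded in 1536-well plates and dosed by pin tool the next day, with either a single drug or a fixed anchor-drug dose combined with five library-drug doses (not always all listed) spaced in √10 steps. Five days later, one step fixed the cells and stained their nuclei (final 0.05% Triton X-100, 1% formaldehyde, 1 ug/ml Hoechst), and nuclei were counted on 4× images. Relative viability is the nuclei count in treated wells divided by the count in vehicle wells, and each value is the median of duplicate plates.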

Shikonin + OSI-027 = compound: CC(C)=CC[C@@H](O)C1=CC(=O)c2c(O)ccc(O)c2C1=O [Shikonin] + COc1cccc2cc(-c3nc([C@H]4CC[C@H](C(=O)O)CC4)n4ncnc(N)c34)[nH]c12 [OSI-027] (partner 0.5 µM)
In short: as §1

[2] = compound: CC(C)N(CCCNC(=O)Nc1ccc(C(C)(C)C)cc1)C[C@H]1O[C@@H](n2ccc3c(N)ncnc32)[C@H](O)[C@@H]1O
In short: (§2)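 On vehicle-anchored 1536-well plates, lung cancer cell lines held overnight at 37 °C were pinned with five library-drug doses (not always all listed) spaced by √10. With no medium change over 5 days, they were then fixed, permeabilised and Hoechst-stained in one step and imaged at 4×. MetaXpress counted nuclei, and viability is the median across plates of treated-well over vehicle-well nuclei. Acceptance needed control CV below 25% and at least one doubling.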

Shikonin = compound: CC(C)=CC[C@@H](O)C1=CC(=O)c2c(O)ccc(O)c2C1=O [Shikonin]
In short: as §2

| Cell Line | relative viability ([1]; first compound 0.08 µM) | relative viability ([1]; first compound 0.253 µM) | relative viability ([1]; first compound 0.8 µM) | relative viability ([1]; first compound 2.53 µM) | relative viability ([1]; first compound 8 µM) | relative viability (Shikonin + OSI-027; first compound 0.01 µM) | relative viability (Shikonin + OSI-027; first compound 0.1 µM) | relative viability (Shikonin + OSI-027; first compound 0.3162 µM) | relative viability (Shikonin + OSI-027; first compound 1 µM) | relative viability ([2]; 0.08 µM) | relative viability ([2]; 0.253 µM) | relative viability ([2]; 0.8 µM) | relative viability ([2]; 2.53 µM) | relative viability ([2]; 8 µM) | relative viability (Shikonin; 0.01 µM) | relative viability (Shikonin; 0.1 µM) | relative viability (Shikonin; 0.3162 µM) | relative viability (Shikonin; 1 µM) |
| --- | --- | --- | --- | --- | --- | --- | --- | --- | --- | --- | --- | --- | --- | --- | --- | --- | --- | --- |
| SK-MES-1 | 1.05 | 0.915 | 0.819 | 1.03 | 0.912 | 0.694 | 0.493 | 0.742 | 0.519 | 0.996 | 0.942 | 0.99 | 1.02 | 0.939 | 1.04 | 1.08 | 1.1 | 0.962 |
| SW 900 | 0.472 | 0.469 |  | 0.475 | 0.441 | 0.575 | 0.616 | 0.508 | 0.569 | 0.787 | 0.705 |  | 0.886 | 0.812 | 0.746 | 0.918 | 0.709 | 0.851 |
| SW 1573 | 0.88 | 0.804 | 0.829 | 0.832 | 0.778 | 0.564 | 0.518 | 0.443 | 0.258 | 0.968 | 0.966 | 1.07 | 1.11 | 0.984 | 1.1 | 0.967 | 0.894 | 0.721 |
